Experimental data reported in PubChem BioAssay (NCI).
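Abbreviation: GI50, concentration required for 50% inhibition of growth. TGI is the concentration that stops growth completely.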

Legend:
Test in all cases: growth of human tumour cells (NCI), 384-well format
SK-MEL-28 melanoma = tested on: SK-MEL-28 melanoma
OVCAR-5 ovarian = tested on: OVCAR-5 ovarian
NCI-H522 lung = tested on: NCI-H522 lung
LOX IMVI melanoma = tested on: LOX IMVI melanoma
SW-620 colon = tested on: SW-620 colon
OVCAR-8 ovarian = tested on: OVCAR-8 ovarian
SK-MEL-5 melanoma = tested on: SK-MEL-5 melanoma
ACHN renal = tested on: ACHN renal
MDA-MB-468 breast = tested on: MDA-MB-468 breast
U251 glioblastoma = tested on: U251 glioblastoma
T-47D breast = tested on: T-47D breast
OVCAR-3 ovarian = tested on: OVCAR-3 ovarian
SNB-19 CNS = tested on: SNB-19 CNS
NCI-H322M lung = tested on: NCI-H322M lung
MALME-3M melanoma = tested on: MALME-3M melanoma
OVCAR-4 ovarian = tested on: OVCAR-4 ovarian
HL-60(TB) leukemia = tested on: HL-60(TB) leukemia
HCT-15 colon = tested on: HCT-15 colon
SF-268 CNS = tested on: SF-268 CNS
A549 NSCLC = tested on: A549 NSCLC
HOP-92 NSCLC = tested on: HOP-92 NSCLC
HT29 colon = tested on: HT29 colon
RXF 393 renal = tested on: RXF 393 renal
HCT-116 colon = tested on: HCT-116 colon
NCI-H23 lung = tested on: NCI-H23 lung
UACC-62 melanoma = tested on: UACC-62 melanoma
MDA-MB-435 melanoma = tested on: MDA-MB-435 melanoma
MDA-MB-231 breast = tested on: MDA-MB-231 breast
CAKI-1 renal = tested on: CAKI-1 renal
SF-539 CNS = tested on: SF-539 CNS
HCC-2998 colon = tested on: HCC-2998 colon
IGROV1 ovarian = tested on: IGROV1 ovarian
MCF7 breast = tested on: MCF7 breast
A498 renal = tested on: A498 renal
RPMI-8226 leukemia = tested on: RPMI-8226 leukemia
HOP-62 NSCLC = tested on: HOP-62 NSCLC
NCI-H460 NSCLC = tested on: NCI-H460 NSCLC
SR leukemia = tested on: SR leukemia
SK-MEL-2 melanoma = tested on: SK-MEL-2 melanoma
TK-10 renal = tested on: TK-10 renal
786-0 renal = tested on: 786-0 renal
SF-295 CNS = tested on: SF-295 CNS
NCI/ADR-RES ovarian = tested on: NCI/ADR-RES ovarian
DU-145 prostate = tested on: DU-145 prostate
KM12 colon = tested on: KM12 colon
SN12C renal = tested on: SN12C renal
UACC-257 melanoma = tested on: UACC-257 melanoma
M14 melanoma = tested on: M14 melanoma
UO-31 renal = tested on: UO-31 renal
NCI-H226 lung = tested on: NCI-H226 lung
BT-549 breast = tested on: BT-549 breast
MOLT-4 leukemia = tested on: MOLT-4 leukemia
COLO 205 colon = tested on: COLO 205 colon
PC-3 prostate = tested on: PC-3 prostate
SK-OV-3 ovarian = tested on: SK-OV-3 ovarian
CCRF-CEM leukemia = tested on: CCRF-CEM leukemia
K-562 leukemia = tested on: K-562 leukemia

Compound `C#Cc1c(F)ccc2cc(O)cc(-c3ncc4c(N5CC6CCC(C5)N6)nc(OC[C@@]56CCCN5C[C@H](F)C6)nc4c3F)c12` has a GI50 (SK-MEL-28 melanoma) of 1.87 µM, a TGI (SK-MEL-28 melanoma) of 3.29 µM and a GI50 (OVCAR-5 ovarian) of 3.14 µM. The TGI (OVCAR-5 ovarian) was 10.5 µM, the GI50 (NCI-H522 lung) was 1.83 µM and the TGI (NCI-H522 lung) was 3.63 µM. The GI50 (LOX IMVI melanoma) was 2.23 µM, the TGI (LOX IMVI melanoma) was 3.7 µM and the GI50 (SW-620 colon) was 0.375 µM. It also gave a TGI (SW-620 colon) of 1.61 µM, a GI50 (OVCAR-8 ovarian) of 12.2 µM and a TGI (OVCAR-8 ovarian) of 24.7 µM. It also gave a GI50 (SK-MEL-5 melanoma) of 1.67 µM, a TGI (SK-MEL-5 melanoma) of 3.66 µM and a GI50 (ACHN renal) of 16.1 µM. The TGI (ACHN renal) was 29.7 µM, the GI50 (MDA-MB-468 breast) was 2.08 µM and the TGI (MDA-MB-468 breast) was 3.55 µM. The GI50 (U251 glioblastoma) was 1.83 µM, the TGI (U251 glioblastoma) was 3.36 µM and the GI50 (T-47D breast) was 2.03 µM. For the same compound, the TGI (T-47D breast) was 5.32 µM, the GI50 (OVCAR-3 ovarian) was 4.45 µM and the TGI (OVCAR-3 ovarian) was 16.6 µM. It also gave a GI50 (SNB-19 CNS) of 10.8 µM, a TGI (SNB-19 CNS) of 22.8 µM and a GI50 (NCI-H322M lung) of 6.12 µM. The TGI (NCI-H322M lung) was 19.3 µM, the GI50 (MALME-3M melanoma) was 1.99 µM and the TGI (MALME-3M melanoma) was 3.43 µM. For the same compound, the GI50 (OVCAR-4 ovarian) was 7.07 µM, the TGI (OVCAR-4 ovarian) was 19.7 µM and the GI50 (HL-60(TB) leukemia) was 1.87 µM. It also gave a TGI (HL-60(TB) leukemia) of 3.28 µM, a GI50 (HCT-15 colon) of 14.6 µM and a TGI (HCT-15 colon) of 27.8 µM. It also gave a GI50 (SF-268 CNS) of 1.99 µM, a TGI (SF-268 CNS) of 4.34 µM and a GI50 (A549 NSCLC) of 5.54 µM. The TGI (A549 NSCLC) was 18.5 µM, the GI50 (HOP-92 NSCLC) was 2.03 µM and the TGI (HOP-92 NSCLC) was 4.02 µM. It also gave a GI50 (HT29 colon) of 2.02 µM, a TGI (HT29 colon) of 4.05 µM and a GI50 (RXF 393 renal) of 2.41 µM. The TGI (RXF 393 renal) was 6.19 µM, the GI50 (HCT-116 colon) was 1.37 µM and the TGI (HCT-116 colon) was 2.9 µM. For the same compound, the GI50 (NCI-H23 lung) was 0.568 µM, the TGI (NCI-H23 lung) was 3.51 µM and the GI50 (UACC-62 melanoma) was 1.78 µM. The TGI (UACC-62 melanoma) was 3.18 µM, the GI50 (MDA-MB-435 melanoma) was 1.93 µM and the TGI (MDA-MB-435 melanoma) was 3.4 µM. The GI50 (MDA-MB-231 breast) was 1.94 µM, the TGI (MDA-MB-231 breast) was 4 µM and the GI50 (CAKI-1 renal) was 10.9 µM. For the same compound, the TGI (CAKI-1 renal) was 22.9 µM, the GI50 (SF-539 CNS) was 1.92 µM and the TGI (SF-539 CNS) was 3.52 µM. It also gave a GI50 (HCC-2998 colon) of 0.303 µM, a TGI (HCC-2998 colon) of 1.67 µM and a GI50 (IGROV1 ovarian) of 12.4 µM. It also gave a TGI (IGROV1 ovarian) of 24.9 µM, a GI50 (MCF7 breast) of 2.36 µM and a TGI (MCF7 breast) of 5.28 µM. The GI50 (A498 renal) was 10.5 µM, the TGI (A498 renal) was 22.4 µM and the GI50 (RPMI-8226 leukemia) was 0.0774 µM. The TGI (RPMI-8226 leukemia) was 0.845 µM, the GI50 (HOP-62 NSCLC) was 0.853 µM and the TGI (HOP-62 NSCLC) was 10.2 µM. The GI50 (NCI-H460 NSCLC) was 1.51 µM, the TGI (NCI-H460 NSCLC) was 5.97 µM and the GI50 (SR leukemia) was 1.06 µM. For the same compound, the TGI (SR leukemia) was 2.25 µM, the GI50 (SK-MEL-2 melanoma) was 1.85 µM and the TGI (SK-MEL-2 melanoma) was 3.26 µM. It also gave a GI50 (TK-10 renal) of 17.3 µM, a TGI (TK-10 renal) of 31.1 µM and a GI50 ([…]-0 renal) of 12.4 µM. The TGI (786-0 renal) was 24.9 µM, the GI50 (SF-295 CNS) was 17.7 µM and the TGI (SF-295 CNS) was 31.6 µM. For the same compound, the GI50 (NCI/ADR-RES ovarian) was 85.7 µM, the TGI (NCI/ADR-RES ovarian) was over 100 µM and the GI50 (DU-145 prostate) was 13.7 µM. It also gave a TGI (DU-145 prostate) of 26.6 µM, a GI50 (KM12 colon) of 2.07 µM and a TGI (KM12 colon) of 5.31 µM. For the same compound, the GI50 (SN12C renal) was 11.5 µM, the TGI (SN12C renal) was 23.7 µM and the GI50 (UACC-257 melanoma) was 1.77 µM. For the same compound, the TGI (UACC-257 melanoma) was 3.17 µM, the GI50 (M14 melanoma) was 1.78 µM and the TGI (M14 melanoma) was 3.27 µM. It also gave a GI50 (UO-31 renal) of 15.8 µM, a TGI (UO-31 renal) of 29.3 µM and a GI50 (NCI-H226 lung) of 10.7 µM. It also gave a TGI (NCI-H226 lung) of 22.6 µM, a GI50 (BT-549 breast) of 1.86 µM and a TGI (BT-549 breast) of 3.47 µM. For the same compound, the GI50 (MOLT-4 leukemia) was 1.9 µM, the TGI (MOLT-4 leukemia) was 3.32 µM and the GI50 (COLO 205 colon) was 2.02 µM. The TGI (COLO 205 colon) was 3.94 µM, the GI50 (PC-3 prostate) was 9.06 µM and the TGI (PC-3 prostate) was 21 µM. For the same compound, the GI50 (SK-OV-3 ovarian) was 2.36 µM, the TGI (SK-OV-3 ovarian) was 5.59 µM and the GI50 (CCRF-CEM leukemia) was 1.25 µM. For the same compound, the TGI (CCRF-CEM leukemia) was 2.51 µM, the GI50 (K-562 leukemia) was 3.58 µM and the TGI (K-562 leukemia) was 9.9 µM.
